The source of these data is patent US20090269354A1, “QUINAZOLINE DERIVATIVES AND METHODS OF TREATMENT” (Concert Pharmaceuticals, Inc., priority 2008, published 2009).

A short description of data set [1]: Compound stability in human liver microsomes (Example 15). In kind it is in vitro ADME. To be noted: 1 μM test compound; for % Difference (t1/2 compared to erlotinib): [(deuterated species) − (nondeuterated species)](100)/(nondeuterated species), reference erlotinib, 0.5 mg/mL HLM; for half-life at 1 μM: pH 7.4, pooled human liver microsomes 0.5 mg/mL, 2 mM NADPH, 37° C., 0-30 min. On the procedure:
Evaluation of Compound Stability in Human Liver Microsomes. […] The metabolic stability of compounds of the invention was tested using pooled liver microsomal incubations. Samples of the test compounds, exposed to pooled human liver microsomes, were analyzed using HPLC-MS (or MS/MS) detection. For determining metabolic stability, multiple reaction monitoring (MRM) was used to measure the disappearance of the test compounds. Experimental Procedures. Human liver microsomes (“HLM”; 20 mg/mL) were obtained from Xenotech, LLC (Lenexa, Kans.). β-nicotinamide adenine dinucleotide phosphate, reduced form (NADPH), magnesium chloride (MgCl2), and dimethyl sulfoxide (DMSO) were purchased from Sigma-Aldrich. Stock solutions of test compounds (7.5 mM) were prepared in DMSO. The 7.5 mM stock solutions were diluted to 50 μM in acetonitrile (ACN). The 20 mg/mL human liver microsomes were diluted to 0.625 mg/mL in 0.1 M potassium phosphate buffer, pH 7.4, containing 3 mM MgCl2. The diluted microsomes (375 μL) were added to wells of a 96-well deep-well polypropylene plate in triplicate. A 10 μL aliquot of the 50 μM test compound solution was added to the microsomes and the mixture was pre-warmed for 10 minutes. Reactions were initiated by addition of 125 μL of pre-warmed NADPH solution (8 mM NADPH in 0.1M potassium phosphate buffer, pH 7.4, containing 3 mM MgCl2). The final reaction volume was 0.5 mL and contained 0.5 mg/mL human liver microsomes, 1 μM test compound, and 2 mM NADPH in 0.1 M potassium phosphate buffer, pH 7.4, and 3 mM MgCl2. The reaction mixtures were incubated at 37° C., and 50 μL aliquots were removed at 0, 5, 10, 20, and 30 minutes and added to shallow-well 96-well plates which contained 50 μL of ice-cold ACN with internal standard to stop the reactions. The plates were stored at 4° C. for 20 minutes after which 100 μL of water was added to the wells of the plate before centrifugation to pellet precipitated proteins. Supernatants were transferred to another 96-well plate and analyzed for amounts of parent remaining by LC-MS/MS using an Applied Bio-systems API 4000 mass spectrometer. 7-ethoxycoumarin was used as a positive control. The in vitro t1/2 s for test compounds were calculated from the slopes of the linear regression of % parent remaining (ln) vs incubation time relationship. […] Data analysis was performed using Microsoft Excel Software.
In general terms: Liver microsomes are vesicles of endoplasmic reticulum, rich in cytochrome P450 enzymes.

Data set [2] is described as follows: Compound stability in human liver microsomes (Example 16, design as Example 15). In kind it is in vitro ADME. To be noted: 1 μM test compound; for half-life at 1 μM: pooled human liver microsomes, pH 7.4, human liver microsomes 0.5 mg/mL; for % Difference with respect to non-deuterated analog: t1/2 vs 105-H or 106-H; for % Difference with respect to non-deuterated analog / % Difference with respect to non-deuterated Erlotinib: 0.5 mg/mL HLM; for % Difference with respect to non-deuterated Erlotinib: t1/2 vs erlotinib. On the procedure:
The metabolic stability of compounds of the invention was tested using pooled liver microsomal incubations. Samples of the test compounds, exposed to pooled human liver microsomes, were analyzed using HPLC-MS (or MS/MS) detection. For determining metabolic stability, multiple reaction monitoring (MRM) was used to measure the disappearance of the test compounds.
Experimental Procedures. Human liver microsomes (“HLM”; 20 mg/mL) were obtained from Xenotech, LLC (Lenexa, Kans.). β-nicotinamide adenine dinucleotide phosphate, reduced form (NADPH), magnesium chloride (MgCl2), and dimethyl sulfoxide (DMSO) were purchased from Sigma-Aldrich.
Stock solutions of test compounds (7.5 mM) were prepared in DMSO. The 7.5 mM stock solutions were diluted to 50 μM in acetonitrile (ACN). The 20 mg/mL human liver microsomes were diluted to 0.625 mg/mL in 0.1 M potassium phosphate buffer, pH 7.4, containing 3 mM MgCl2. The diluted microsomes (375 μL) were added to wells of a 96-well deep-well polypropylene plate in triplicate. A 10 μL aliquot of the 50 μM test compound solution was added to the microsomes and the mixture was pre-warmed for 10 minutes. Reactions were initiated by addition of 125 μL of pre-warmed NADPH solution (8 mM NADPH in 0.1M potassium phosphate buffer, pH 7.4, containing 3 mM MgCl2). The final reaction volume was 0.5 mL and contained 0.5 mg/mL human liver microsomes, 1 μM test compound, and 2 mM NADPH in 0.1 M potassium phosphate buffer, pH 7.4, and 3 mM MgCl2. The reaction mixtures were incubated at 37° C., and 50 μL aliquots were removed at 0, 5, 10, 20, and 30 minutes and added to shallow-well 96-well plates which contained 50 μL of ice-cold ACN with internal standard to stop the reactions. The plates were stored at 4° C. for 20 minutes after which 100 μL of water was added to the wells of the plate before centrifugation to pellet precipitated proteins. Supernatants were transferred to another 96-well plate and analyzed for amounts of parent remaining by LC-MS/MS using an Applied Bio-systems API 4000 mass spectrometer. 7-ethoxycoumarin was used as a positive control.
The in vitro t1/2 s for test compounds were calculated from the slopes of the linear regression of % parent remaining (ln) vs incubation time relationship.
in vitro t1/2=0.693/k, where k=−[slope of linear regression of % parent remaining(ln) vs incubation time]. Data analysis was performed using Microsoft Excel Software.
Evaluation of Compound Stability in Human Liver Microsomes.

Turning to `[2H]C([2H])([2H])OC([2H])([2H])C([2H])([2H])Oc1cc2ncnc(Nc3ccc(F)c(C#C)c3)c2cc1OC([2H])([2H])C([2H])([2H])OC([2H])([2H])[2H]` [Compound 121, N-(3-Ethynyl-4-fluorophenyl)-6,7-bis(2-(methoxy-d3)ethoxy-d4)quinazolin-4-amine], in data set [1], the “% Difference (t1/2 compared to erlotinib)” value is recorded as −12% and the half-life at 1 μM amounted to 0.847 h.
With `[2H]C([2H])([2H])OC([2H])([2H])C([2H])([2H])Oc1cc2ncnc(Nc3cccc(C#C)c3)c2cc1OC([2H])([2H])C([2H])([2H])OC([2H])([2H])[2H]` [Compound 120, N-(3-Ethynylphenyl)-6,7-bis(2-(methoxy-d3)ethoxy-d4)quinazolin-4-amine], in data set [1], the half-life at 1 μM stood at 1.14 h.
Take `[2H]C([2H])([2H])OC([2H])([2H])COc1cc2ncnc(Nc3cccc(Br)c3)c2cc1OCC([2H])([2H])OC([2H])([2H])[2H]` [Compound 105, N-(3-Bromophenyl)-6,7-bis(2-(methoxy-d3)-2,2-d2-ethoxy)quinazolin-4-amine]: in data set [2], the half-life at 1 μM is 1.18 h, the “% Difference with respect to non-deuterated analog” value was found to be 35% and the “% Difference with respect to non-deuterated Erlotinib” value came out at 19%.
With `C#Cc1cccc(Nc2ncnc3cc(OCCOC)c(OCCOC)cc23)c1` [Erlotinib, [6,7-Bis-(2-methoxy-ethoxy)-quinazolin-4-yl]-(3-ethynyl-phenyl)-amine, reference compound], the figures for the half-life at 1 μM in data set [2] and in data set [1] were 0.997 h and 0.963 h, respectively.
For the compound `[2H]C([2H])([2H])OC([2H])([2H])COc1cc2ncnc(Nc3cccc(Cl)c3)c2cc1OCC([2H])([2H])OC([2H])([2H])[2H]` [Compound 106, N-(3-Chlorophenyl)-6,7-bis(2-(methoxy-d3)-2,2-d2-ethoxy)quinazolin-4-amine], in data set [2], the half-life at 1 μM was 1.54 h, the “% Difference with respect to non-deuterated analog” value came to 22% and the “% Difference with respect to non-deuterated Erlotinib” value came to 55%.
For `[2H]C([2H])([2H])OC([2H])([2H])COc1cc2ncnc(Nc3ccc(F)c(C#C)c3)c2cc1OCC([2H])([2H])OC([2H])([2H])[2H]` [Compound 135, N-(3-Ethynyl-4-fluorophenyl)-6,7-bis(2-(methoxy-d3)-2,2-d2-ethoxy)quinazolin-4-amine], in data set [1], the “% Difference (t1/2 compared to erlotinib)” value is −19% and the half-life at 1 μM amounted to 0.785 h.
For the compound `[2H]C([2H])([2H])OC([2H])([2H])COc1cc2ncnc(Nc3ccc(O)c(C#C)c3)c2cc1OCC([2H])([2H])OC([2H])([2H])[2H]` [Compound 138, 4-(6,7-Bis(2-(methoxy-d3)-2,2-d2-ethoxy)quinazolin-4-ylamino)-2-ethynylphenol], in data set [1], the half-life at 1 μM was 1.48 h.

As usually defined, the half-life is the time needed for the level to fall by half in the phase considered. Read a low half-life as fast loss.
